Source: ChEMBL document CHEMBL3861987, “Synthesis, antitumor evaluation and 3D-QSAR studies of [1,2,4]triazolo[4,3-b][1,2,4,5]tetrazine derivatives” (Bioorg Med Chem Lett, 2016)

How the values were obtained:
MCF-7 (Homo sapiens) = assay: Antiproliferative activity against human MCF-7 cells after 72 hrs by MTT assay; conditions: MCF-7, 72 h
[1] = Cytotoxicity against human HL60 cells assessed as reduction in cell viability after 72 hrs by MTT assay; type: functional, cell-based; conditions: HL-60, 72 h
[2] = Cytotoxicity against human MCF7 cells assessed as reduction in cell viability after 72 hrs by MTT assay; type: functional, cell-based; conditions: MCF7, 72 h
[3] = Cytotoxicity against human Bewo cells assessed as reduction in cell viability after 72 hrs by MTT assay; type: functional, cell-based
[4] = Solubility of compound in DMSO; type: physicochemical

Structure (SMILES)	IC50 (MCF-7 (Homo sapiens); read-out: IC50)	IC50 (MCF-7 (Homo sapiens); read-out: pIC50 (converted))	IC50 [1]	IC50 [2]	IC50 [3]	solubility [4]
CCC(=O)N1CCN(c2nnc3nncn3n2)CC1	14.8 µM	14.8 µM	–	–	–	–
CC(C)c1nnc2nnc(N3CCCC3)nn12	–	46.8 µM	71.2 µM	46.8 µM	3.43 µM	–
O=[N+]([O-])c1ccc(-c2nnc3nnc(N4CCOCC4)nn23)cc1	–	–	5.79 µM	> 100 µM	> 100 µM	–
CCCCCc1nnc2nnc(N3CCCC3)nn12	–	42.9 µM	42.5 µM	42.9 µM	27.9 µM	–
OCCNc1nnc2nncn2n1	11.6 µM	11.6 µM	–	–	–	–
O=C(c1ccccc1)N1CCN(c2nnc3nncn3n2)CC1	8.38 µM	8.38 µM	–	–	–	–
Clc1ccccc1-c1nnc2nnc(N3CCCC3)nn12	–	29.6 µM	2.66 µM	29.6 µM	2.99 µM	–
Cc1ccc(C(=O)N2CCN(c3nnc4nncn4n3)CC2)cc1	15.9 µM	15.9 µM	–	–	–	–
c1nnc2nnc(N3CCCCC3)nn12	27.2 µM	27.2 µM	–	–	–	–
O=C(C1CCCCC1)N1CCN(c2nnc3nncn3n2)CC1	1.26 µM	1.26 µM	–	–	–	–
Cc1cc(C)n(-c2nnc3nnc(-c4ccccc4Cl)n3n2)n1	–	19.5 µM	73.6 µM	19.5 µM	3.21 µM	–
c1nnc2nnc(NC3CCCC3)nn12	88.2 µM	88.1 µM	–	–	–	–
Clc1ccc(-c2nnc3nnc(N4CCCC4)nn23)c(Cl)c1	–	19.6 µM	8.65 µM	19.6 µM	8.06 µM	–
Cc1nnc2nnc(N3CCOCC3)nn12	–	38.9 µM	4.52 µM	38.9 µM	5.88 µM	–
c1ccc(CN2CCN(c3nnc4nncn4n3)CC2)cc1	27.3 µM	27.3 µM	–	–	–	–
CC(C)(C)C(=O)N1CCN(c2nnc3nncn3n2)CC1	5.51 µM	5.51 µM	–	–	–	–
CCCCC(=O)N1CCN(c2nnc3nncn3n2)CC1	2.76 µM	2.75 µM	–	–	–	–
Cc1cc(C)n(-c2nnc3nnc(C4CCCCC4)n3n2)n1	–	12.8 µM	0.67 µM	12.8 µM	6.7 µM	–
Cc1cc(C)n(-c2nnc3nnc(Cc4ccccc4)n3n2)n1	–	54.8 µM	2.61 µM	54.8 µM	2.29 µM	–
CC(=O)N1CCN(c2nnc3nncn3n2)CC1	13.9 µM	13.9 µM	–	–	–	–

Structure (SMILES)	IC50 (MCF-7 (Homo sapiens); read-out: IC50)	IC50 (MCF-7 (Homo sapiens); read-out: pIC50 (converted))	IC50 [1]	IC50 [2]	IC50 [3]	solubility [4]
Cc1cc(C)n(-c2nnc3nnc(-c4ccc(Cl)cc4)n3n2)n1	–	5.57 µM	> 100 µM	5.57 µM	22.6 µM	–
O=C(Cc1ccccc1)N1CCN(c2nnc3nncn3n2)CC1	3.08 µM	3.08 µM	–	–	–	–
Clc1ccc(-c2nnc3nnc(N4CCOCC4)nn23)cc1	–	13.1 µM	0.63 µM	13.1 µM	4.09 µM	–
Fc1ccc(-c2nnc3nnc(N4CCOCC4)nn23)cc1	–	32.9 µM	28.9 µM	32.9 µM	4.65 µM	–
Clc1ccccc1-c1nnc2nnc(N3CCOCC3)nn12	–	14.9 µM	13.2 µM	14.9 µM	3.15 µM	–
O=C(c1ccc([N+](=O)[O-])cc1)N1CCN(c2nnc3nncn3n2)CC1	4.53 µM	4.53 µM	–	–	–	–
CCc1nnc2nnc(N3CCCC3)nn12	–	47 µM	47 µM	47 µM	5.02 µM	–
COc1ccc(-c2nnc3nnc(N4CCCCC4)nn23)cc1	–	–	12.8 µM	> 100 µM	> 100 µM	–
Cc1cc(C)n(-c2nnc3nnc(C(C)C)n3n2)n1	–	33.7 µM	1.16 µM	33.7 µM	2.32 µM	–
O=C(c1ccc(Cl)cc1)N1CCN(c2nnc3nncn3n2)CC1	12.8 µM	12.9 µM	–	–	–	–
c1ccc(CCNc2nnc3nncn3n2)cc1	1.24 µM	1.24 µM	–	–	–	–
Cc1cc(C)n(-c2nnc3nnc(C)n3n2)n1	–	17.8 µM	0.43 µM	17.8 µM	2.61 µM	–
Cc1ccc(-c2nnc3nnc(-n4nc(C)cc4C)nn23)cc1	–	36.2 µM	> 100 µM	36.2 µM	7.54 µM	–
CCCCCc1nnc2nnc(-n3nc(C)cc3C)nn12	–	22 µM	1.05 µM	22 µM	2.79 µM	–
O=[N+]([O-])c1ccc(-c2nnc3nnc(N4CCCC4)nn23)cc1	–	–	> 100 µM	> 100 µM	> 100 µM	–
COc1ccc(-c2nnc3nnc(N4CCOCC4)nn23)cc1	–	–	39 µM	> 100 µM	8.94 µM	–
Nc1nnc2nncn2n1	46.5 µM	46.5 µM	–	–	–	–
Cc1nnc2nnc(N3CCCC3)nn12	–	44.9 µM	29.7 µM	44.8 µM	5.36 µM	–
CC(C)COC(=O)N1CCN(c2nnc3nncn3n2)CC1	5.39 µM	5.38 µM	–	–	–	–
CC(C)(C)c1nnc2nnc(N3CCCC3)nn12	–	55 µM	> 100 µM	55 µM	12.5 µM	–

Structure (SMILES)	IC50 (MCF-7 (Homo sapiens); read-out: IC50)	IC50 (MCF-7 (Homo sapiens); read-out: pIC50 (converted))	IC50 [1]	IC50 [2]	IC50 [3]	solubility [4]
CN1CCN(c2nnc3nncn3n2)CC1	21.6 µM	21.6 µM	–	–	–	–
Fc1ccc(-c2nnc3nnc(N4CCCCC4)nn23)cc1	–	41.4 µM	30.7 µM	41.4 µM	3.34 µM	–
c1nnc2nnc(NC3CCCCC3)nn12	3.51 µM	3.52 µM	–	–	–	–
c1ccc(-c2nnc3nnc(N4CCCC4)nn23)cc1	–	–	> 100 µM	> 100 µM	> 100 µM	Insoluble
Clc1ccc(-c2nnc3nnc(N4CCOCC4)nn23)c(Cl)c1	–	19.3 µM	4.84 µM	19.3 µM	1.71 µM	–
CCCC(=O)N1CCN(c2nnc3nncn3n2)CC1	6.91 µM	6.92 µM	–	–	–	–
Cc1cc(C)n(-c2nnc3nnc(-c4ccccc4)n3n2)n1	–	13.6 µM	12.1 µM	13.7 µM	23.6 µM	–
CCCCNc1nnc2nncn2n1	13.7 µM	13.7 µM	–	–	–	–
Cc1cc(C)n(-c2nnc3nnc(C(C)(C)C)n3n2)n1	–	17.6 µM	0.73 µM	17.6 µM	0.73 µM	–
Cc1cc(C)n(-c2nnc3nnc(-c4ccc([N+](=O)[O-])cc4)n3n2)n1	–	6.85 µM	> 100 µM	6.85 µM	7.29 µM	–
CCCCCC(=O)N1CCN(c2nnc3nncn3n2)CC1	5.26 µM	5.26 µM	–	–	–	–
c1ccc(-c2nnc3nnc(N4CCOCC4)nn23)cc1	–	8.87 µM	30.4 µM	8.87 µM	5.65 µM	–
COc1ccc(-c2nnc3nnc(-n4nc(C)cc4C)nn23)cc1	–	16.7 µM	> 100 µM	16.7 µM	18.3 µM	–
O=[N+]([O-])c1ccc(-c2nnc3nnc(N4CCCCC4)nn23)cc1	–	–	0.61 µM	> 100 µM	> 100 µM	–
CCc1nnc2nnc(-n3nc(C)cc3C)nn12	–	36.1 µM	0.82 µM	36 µM	1.64 µM	–
C1CCC(c2nnc3nnc(N4CCCC4)nn23)CC1	–	37.7 µM	23.8 µM	37.7 µM	22 µM	–
CCCNc1nnc2nncn2n1	19.8 µM	19.8 µM	–	–	–	–
Fc1ccc(-c2nnc3nnc(N4CCCC4)nn23)cc1	–	–	4.56 µM	> 100 µM	> 100 µM	Insoluble
